Measured values reported in US20110105514A1, “5,6,7,8-TETRAHYDRO-IMIDAZO[1,5-A]PYRAZINE COMPOUNDS” (priority 2008, published 2011).
Where two headings read alike, the source gives them in different places.

What was measured:
human orexin-1 receptor = target: T1, human orexin-1 receptor (Homo sapiens, UniProt O43613); assay: FLIPR calcium assay of orexin receptor antagonistic activity, CHO cells expressing the human orexin-1 receptor; assay type: cell-based; conditions: 3 nM orexin-A as agonist
T1 construct: expressed in transfected cells; host or cells: Chinese hamster ovary (CHO) cells
T1 sequence (O43613 1-425): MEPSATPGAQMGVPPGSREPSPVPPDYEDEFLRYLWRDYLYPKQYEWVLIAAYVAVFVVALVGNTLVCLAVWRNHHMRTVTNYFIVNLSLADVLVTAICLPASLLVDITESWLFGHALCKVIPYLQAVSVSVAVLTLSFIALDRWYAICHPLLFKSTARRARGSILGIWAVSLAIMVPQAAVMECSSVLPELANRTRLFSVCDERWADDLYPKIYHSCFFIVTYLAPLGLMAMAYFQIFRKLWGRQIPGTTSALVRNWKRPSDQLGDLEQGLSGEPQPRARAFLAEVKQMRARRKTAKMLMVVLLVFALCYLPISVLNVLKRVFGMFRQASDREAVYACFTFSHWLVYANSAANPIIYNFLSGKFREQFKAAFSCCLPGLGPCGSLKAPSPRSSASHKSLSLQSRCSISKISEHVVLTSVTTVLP
Description: (§1) The orexin receptor antagonistic activity of the compounds of formula (I) is determined in accordance with the following experimental method.
(§2) Chinese hamster ovary (CHO) cells expressing the human orexin-1 receptor and the human orexin-2 receptor, respectively, are grown in culture medium (Ham F-12 with L-Glutamine) containing 300 μg/ml G418, 100 U/ml penicillin, 100 μg/ml streptomycin and 10% heat inactivated fetal calf serum (FCS). The cells are seeded at 20′000 cells/well into 384-well black clear bottom sterile plates (Greiner). The seeded plates are incubated overnight at 37° C. in 5% CO2.
(§3) Human orexin-A as an agonist is prepared as 1 mM stock solution in MeOH:water (1:1), diluted in HBSS containing 0.1% bovine serum albumin (BSA), NaHCO3: 0.375 g/l and 20 mM HEPES for use in the assay at a final concentration of 3 nM.
(§4) Antagonists are prepared as 10 mM stock solution in DMSO, then diluted in 384-well plates using DMSO followed by a transfer of the dilutions into in HBSS containing 0.1% bovine serum albumin (BSA), NaHCO3: 0.375 g/l and 20 mM HEPES. On the day of the assay, 50 μl of staining buffer (HBSS containing 1% FCS, 20 mM HEPES, NaHCO3: 0.375 g/l, 5 mM probenecid (Sigma) and 3 μM of the fluorescent calcium indicator fluo-4 AM (1 mM stock solution in DMSO, containing 10% pluronic) is added to each well. The 384-well cell-plates are incubated for 50 min at 37° C. in 5% CO2 followed by equilibration at RT for 30-120 min before measurement.
(§5) Within the Fluorescent Imaging Plate Reader (FLIPR Tetra, Molecular Devices), antagonists are added to the plate in a volume of […], incubated for 10 min and finally […] of agonist is added. Fluorescence is measured for each well at 1 second intervals, and the height of each fluorescence peak is compared to the height of the fluorescence peak induced by 3 nM orexin-A with vehicle in place of antagonist. For each antagonist, the IC50 value (the concentration of compound needed to inhibit 50% of the agonistic response) is determined and may be normalized using the obtained IC50 value of a on-plate reference compound (normalized values in Table 1 indicated by an asterisk*).
(§6) The calculated IC50 values of the compounds may fluctuate depending on the daily cellular assay performance. Fluctuations of this kind are known to those skilled in the art.

human orexin-2 receptor = target: T2, human orexin-2 receptor (Homo sapiens, UniProt O43614); assay: FLIPR calcium assay of orexin receptor antagonistic activity, CHO cells expressing the human orexin-2 receptor; assay type: cell-based; conditions: 3 nM orexin-A as agonist
T2 construct: expressed in transfected cells; host or cells: Chinese hamster ovary (CHO) cells
T2 sequence (O43614 1-444): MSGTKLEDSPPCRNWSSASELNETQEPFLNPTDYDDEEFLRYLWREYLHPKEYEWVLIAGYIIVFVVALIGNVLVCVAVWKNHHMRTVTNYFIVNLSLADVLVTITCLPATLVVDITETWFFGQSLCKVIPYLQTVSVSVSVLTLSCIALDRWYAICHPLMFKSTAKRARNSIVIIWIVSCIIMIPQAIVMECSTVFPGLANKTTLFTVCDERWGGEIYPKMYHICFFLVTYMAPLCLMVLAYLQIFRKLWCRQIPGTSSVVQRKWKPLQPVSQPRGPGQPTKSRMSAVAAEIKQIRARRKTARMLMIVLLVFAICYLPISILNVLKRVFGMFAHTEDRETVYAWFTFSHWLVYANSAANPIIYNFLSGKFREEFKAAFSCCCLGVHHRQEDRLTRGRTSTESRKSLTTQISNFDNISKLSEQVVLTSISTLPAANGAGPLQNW
Description: as §1, §2, §3, §4, §5, §6

rat [1] = conditions: cited from earlier work
rat [2] = conditions: rat model; cited from earlier work
rat [3] = conditions: cited from earlier work; remark: listed apart in the source
[4] = value not normalized, read-out: OX1 IC50
[5] = value not normalized, read-out: OX2 IC50
[6] = normalized using IC50 of on-plate reference compound (asterisk), read-out: OX1 IC50 (in nM), normalized value
[7] = normalized using IC50 of on-plate reference compound (asterisk), read-out: OX2 IC50 (in nM), normalized value

SMILES	IC50 (human orexin-1 receptor; [4])	IC50 (human orexin-2 receptor; [5])	IC50 (human orexin-1 receptor; [6])	IC50 (human orexin-2 receptor; [7])	other results
CNC(=O)[C@@H](c1ccccc1)N1CCn2c(SC)nc(Cl)c2[C@@H]1CCc1ccc(C(F)(F)F)c(F)c1F [Example 8, (R)-2′-{1-chloro-(8)-8-[2-(2,3-difluoro-4-trifluoromethyl-phenyl)-ethyl]-3-methylsulfanyl-5,6-dihydro-8H-imidazo[1,5-a]pyrazin-7-yl}-N-methyl-2′-phenyl-acetamide]	56 nM	21 nM	–	–	–
CNC(=O)[C@@H](c1ccccc1)N1CCn2c(C(F)(F)F)nc(C)c2[C@@H]1CCc1ccc(C(F)(F)F)cc1 [Example 13a, N-methyl-(R)-2′-{1-methyl-3-trifluoromethyl-(S)-8-[2-(4-trifluoromethyl-phenyl)-ethyl]-5,6-dihydro-8H-imidazo[1,5-a]pyrazin-7-yl}-2′-phenyl-acetamide]	259 nM	8 nM	–	–	–
CNC(=O)[C@@H](c1ccccc1)N1CCc2cc(OC)c(OC)cc2[C@@H]1CCc1ccc(C(F)(F)F)cc1 [(2R)-2-{(1S)-6,7-dimethoxy-1-[2-(4-trifluoromethyl-phenyl)-ethyl]-3,4-dihydro-1H-isoquinolin-2-yl}-N-methyl-2-phenyl-acetamide]	–	–	–	–	alertness (active wake and locomotion) (rat [1]): decrease alertness; time spent in both REM and NREM sleep (rat [1]): dose-dependently increase the time spent in both REM and NREM sleep; memory function (rat [2]): enhance memory function; activity in post-traumatic stress disorder model (rat [3]): active
CCc1nc(Cl)c2n1CCN([C@@H](C(=O)NC)c1ccccc1)[C@H]2CCc1cccc(OC(F)F)c1 [Example 11, (R)-2′-{1-chloro-(S)-8-[2-(3-difluoromethoxy-phenyl)-ethyl]-3-ethyl-5,6-dihydro-8H-imidazo[1,5-a]pyrazin-7-yl}-N-methyl-2′-phenyl-acetamide]	45 nM	2 nM	–	–	–
CNC(=O)[C@@H](c1ccccc1)N1CCn2c(C3CC3)nc(Cl)c2[C@@H]1CCc1ccc(Cl)c(F)c1 [Example 3, (R)-2′-{1-chloro-(S)-8-[2-(4-chloro-3-fluoro-phenyl)-ethyl]-3-cyclopropyl-5,6-dihydro-8H-imidazo[1,5-a]pyrazin-7-yl}-N-methyl-2′-phenyl-acetamide]	43 nM	11 nM	–	–	–
CCc1nc(C2CC2)n2c1C(CCc1ccc(C(F)(F)F)c(F)c1)N(C(C(=O)NC)c1ccccc1)CC2 [Example 17, (R)-2′-{3-cyclopropyl-1-ethyl-(8)-8-[2-(3-fluoro-4-trifluoromethyl-phenyl)-ethyl]-5,6-dihydro-8H-imidazo[1,5-a]pyrazin-7-yl}-N-methyl-2′-phenyl-acetamide]	–	–	384 nM	8 nM	–

The next lines start with results.

IC50 (human orexin-1 receptor; [4])	IC50 (human orexin-2 receptor; [5])	IC50 (human orexin-1 receptor; [6])	IC50 (human orexin-2 receptor; [7])	SMILES	other results
–	–	3540 nM	63 nM	CCOc1nc(C(F)(F)F)c2n1CCN([C@@H](C(=O)NC)c1ccccc1)[C@H]2CCc1ccc(C(F)(F)F)cc1 [Example 21, (R)-2′-{3-ethoxy-1-trifluoromethyl-(S)-8-[2-(4-trifluoromethyl-phenyl)-ethyl]-5,6-dihydro-8H-imidazo[1,5-a]pyrazin-7-yl}-N-methyl-2′-phenyl-acetamide]	–
–	–	1680 nM	25 nM	CCc1nc(S(C)(=O)=O)c2n1CCN([C@@H](C(=O)NC)c1ccccc1)[C@H]2CCc1ccc(C(F)(F)F)cc1 [Example 23, (R)-2′-{3-ethyl-1-methanesulfonyl-(S)-8-[2-(4-trifluoromethyl-phenyl)-ethyl]-5,6-dihydro-8H-imidazo[1,5-a]pyrazin-7-yl}-N-methyl-2′-phenyl-acetamide]	–
–	–	505 nM	13 nM	CCc1nc(C(F)(F)F)n2c1[C@H](CCc1ccc(C(F)(F)F)cc1)N([C@@H](C(=O)NC)c1ccccc1)CC2 [Example 28, (R)-2′-{1-ethyl-3-trifluoromethyl-(8)-8-[2-(4-trifluoromethyl-phenyl)-ethyl]-5,6-dihydro-8H-imidazo[1,5-a]pyrazin-7-yl}-N-methyl-2′-phenyl-acetamide]	–
–	–	91 nM	7 nM	CNC(=O)[C@@H](c1ccccc1)N1CCn2c(C3CC3)nc(Cl)c2[C@@H]1CCc1cccc(C(F)(F)F)c1 [Example 26, (R)-2′-{1-chloro-3-cyclopropyl-(S)-8-[2-(3-trifluoromethyl-phenyl)-ethyl]-5,6-dihydro-8H-imidazo[1,5-a]pyrazin-7-yl}-N-methyl-2′-phenyl-acetamide]	–
